Measured values as given in patent publication US4528027A, “Acylthio-substituted triazines” (Shell Oil Company, priority 1984, dated 1985).
Like-named read-outs stand apart in the source and are kept apart here.

Assay: Approximate solubility in xylene at room temperature
Format: physicochemical

Approximate Solubility at Room Temperature, Grams of Compound per 100 Grams of Xylene | SMILES | Approximate Solubility at Room Temperature, Grams of Compound per 100 Grams of Xylene (xylene, room temperature)
> 150 Grams of Compound per 100 Gram | CCN(SC(=O)OC)c1nc(NC(C)C)nc(OC)n1 [Compound 14, 2-methoxy-4-(1-methylethylamino)-6-(N-ethyl-N-((methoxycarbonyl)thio))-1,3,5-triazine] | 
> 150 Grams of Compound per 100 Gram | CCN(SC(=O)OC)c1nc(NC(C)C)nc(SC)n1 [Compound 15, 2-(methylthio)-4-(1-methylethylamino)-6-(N-ethyl-N-((methoxycarbonyl)thio))-1,3,5-triazine] | 

Further lines, the compound ahead of its results:

SMILES | Approximate Solubility at Room Temperature, Grams of Compound per 100 Grams of Xylene | Approximate Solubility at Room Temperature, Grams of Compound per 100 Grams of Xylene (xylene, room temperature)
CCN(SC(=O)OC)c1nc(Cl)nc(NC(C)(C)C#N)n1 [Compound 1, 2-chloro-4-(1-cyano-1-methylethylamino)-6-(N-ethyl-N-((methoxycarbonyl)thio))-1,3,5-triazine] | 26 Grams of Compound per 100 Gram | 
CCN(SC(=O)OC)c1nc(Cl)nc(NC(C)C)n1 [Compound 5] | > 150 Grams of Compound per 100 Gram | 
CCNc1nc(Cl)nc(NC(C)(C)C#N)n1 [Compound 1B, 2-chloro-4-(1-cyano-1-methylethylamino)-6-ethylamino-1,3,5-triazine, reference compound] |  | 0.3 Grams of Compound per 100 Gram
CCNc1nc(NC(C)C)nc(OC)n1 [Compound 14A, 2-methoxy-4-(1-methylethylamino)-6-ethylamino-1,3,5-triazine, reference compound] |  | 25 Grams of Compound per 100 Gram
